Legend:
[1] = biological target: T1, testosterone-5α-reductase (Mesocricetus auratus, UniProt C7T2J7); assay: Inhibitory effect on the reductase activity (testosterone reduced to 5α-DHT, hamster sebaceous gland); assay type: biochemical; details: for inhibition at 100 µM: 10^-4 molar concentration; for inhibition at 100 µM / inhibition at 10 µM: read-out: Rate of inhibition (reductase activity); for inhibition at 10 µM: 10^-5 molar concentration
T1 construct: by using the sebaceous gland at the back of a hamster; from tissue; host or cells: sebaceous gland at the back of a hamster
T1 sequence (C7T2J7 1-255): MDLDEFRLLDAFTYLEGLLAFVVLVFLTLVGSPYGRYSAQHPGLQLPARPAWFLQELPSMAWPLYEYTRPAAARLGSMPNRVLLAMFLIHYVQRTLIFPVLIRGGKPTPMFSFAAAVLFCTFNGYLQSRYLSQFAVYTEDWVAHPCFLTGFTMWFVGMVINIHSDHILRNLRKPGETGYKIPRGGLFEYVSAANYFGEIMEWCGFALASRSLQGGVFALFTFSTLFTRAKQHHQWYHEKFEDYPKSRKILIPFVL
Description: Based on the method of Takayasu et al. (The Nishinihon Journal of Dermatology, 43, 1215-1217, 1981), the amount of testosterone reduced to 5α-DHT was measured by using the sebaceous gland at the back of a hamster. The concentrations of the samples used in the experiment were 10^-4 and 10^-5 molar concentrations, respectively. The rate of inhibition was calculated from the following equation using the resulting data.
Rate of inhibition (%)=(C-t/C) ×100
C: the amount of 5α-DHT formed in a control
t: the amount of 5α-DHT formed when the sample was added

5α-DHT receptor protein = assay: Inhibitory effect on binding of 5α-DHT with the receptor protein; details: for Rate of inhibition (binding of 5α-DHT with the receptor protein): 10^-6 molar concentration
Description: Based on the method of Takayasu et al. (Arch. Dermatol. Res., 264, 50-51, 1979), the amount of 5α-DHT bound with the receptor protein was measured. The concentration of the sample used in the experiment was 10^-6 molar concentration. The rate of inhibition was calculated from the following equation using the resulting data.
Rate of inhibition (%)=(C-t/C)×100
C: the amount of 5α-DHT bound with the receptor protein in a control
t: the amount of 5α-DHT bound with the receptor protein when the sample was added

[2] = test system: uptake of testosterone into the cells; assay: Inhibition of uptake of testosterone into the cells; assay type: cell-based
hair and scalp = assay: Toxicity test of the present hair grower (local application); assay type: in vivo, human; details: 0.2% ethanol solution
[3] = test system: head sebum / basal cells of hair; assay: Decrease of head sebum and mitosis of basal cells of hair; details: coupled with the defatting actions of ethanol
[4] = Acute toxicity (LD50) of oxendolone, mouse; details: in vivo
Excerpt: (§1) The systemic acute toxicity of oxendolone is as follows:
(§2) Acute Toxicity (LD50 : mg/kg)

[5] = Acute toxicity (LD50) of oxendolone, rat; details: in vivo
Excerpt: as §1, §2

[6] = test system: MPB (male pattern baldness); assay: Clinical cases, male pattern baldness (MPB), topical application; assay type: in vivo, human; details: The patient; Resorcinol and other lotions for application
Excerpt: The following preparations were used in the tests (1)-(22). MPB represents male pattern baldness.

## C[C@]12CC[C@H]3[C@@H](CCC4=CC(=O)CC[C@@]43C)[C@@H]1CC[C@@H]2C(=O)O [4-androsten-3-one-17β-carboxylic acid]
[1]
  inhibition at 100 µM: 54 ± 32%
  inhibition at 10 µM: 31 ± 19%
5α-DHT receptor protein
  Rate of inhibition (binding of 5α-DHT with the receptor protein): 0%

## CC[C@H]1C[C@H]2[C@@H]3CCC4=CC(=O)CC[C@@H]4[C@H]3CC[C@]2(C)[C@H]1O [Oxendolone, 16β-ethyl-17β-hydroxy-4-estren-3-one]
Solubility of oxendolone; ethanol
  solubility in ethanol: soluble
Solubility of oxendolone; vegetable oils etc.
  solubility in vegetable oils, squalane, alcohols, fatty acids, silicone oils, etc.: dissolved totally or partially
Solubility of oxendolone; water
  solubility in water: practically insoluble
[1]
  inhibition at 100 µM: 43 ± 18%
  inhibition at 10 µM: 28 ± 28%
[1]; comparison, Table 1
  inhibitory effect on the reductase activity compared with 4-androsten-3-one-17β-carboxylic acid: equivalent inhibitory effect on the reductase activity
[2]
  inhibition of uptake of testosterone into the cells: inhibit uptake of testosterone into the cells
Hair and scalp; 0.05 ml/cm^2, several times a day
  local acute toxicity: No local acute toxicity was observed
Hair and scalp; in the application schedule
  other systemic or local side effect: No other systemic or local side effect was observed
[3]
  decrease of head sebum and mitosis of basal cells of hair: synergistically produce a decrease of head sebum and promote the mitosis of basal cells of hair
[4]; im, female, intramuscular
  LD50: > 10000 mg/kg
[4]; im, male, intramuscular
  LD50: > 10000 mg/kg
[4]; ip, female, intraperitoneal
  LD50: 2980 mg/kg
[4]; ip, male, intraperitoneal
  LD50: 2930 mg/kg
[5]; im, female, intramuscular
  LD50: > 10000 mg/kg
[5]; im, male, intramuscular
  LD50: > 10000 mg/kg
[5]; ip, female, intraperitoneal
  LD50: 5880 mg/kg
[5]; ip, male, intraperitoneal
  LD50: 6530 mg/kg
5α-DHT receptor protein
  Rate of inhibition (binding of 5α-DHT with the receptor protein): 53%
5α-DHT receptor protein; comparison, Table 2
  inhibitory effect on the binding of 5α-DHT with the receptor protein compared with 4-androsten-3-one-17β-carboxylic acid: greater

## Oc1cccc(O)c1 [Resorcinol]
[6]
  effect of previous treatment, case (9): no appreciable change

Reference: patent USH1551H, “Topical composition and method for reducing hair loss from human scalp” (priority 1982, dated 1996)
